Test results: patent US7858349B2, “Anti-cancer compounds” (The Regents of the University of Colorado, priority 1999, dated 2010)
Where two headings read alike, the source gives them in different places.

Experiments:
A549 NSCLC cells = test: Inhibition of A-549 tumor growth in vivo in nude mice; design: species or system athymic nude mice; key: an IC50 value of “0” represents no detectable anti-cancer activity for a drug in a given cell line; “Stim.” indicates the observation of a stimulatory activity on the growth of the cancer cell line; details: percent inhibition of tumor growth in nude mice; i.p. 5 mg/kg/every second day or 10 mg/kg/every fourth day
Description: Compounds having high in vitro cytotoxic activity were tested against implanted tumors in vivo. Athymic nude mice were implanted subcutaneously with suspensions (2 million SHP-77 SCLC cells, 1 million A549 NSCLC cells or 1.5 million PC3 PC cells) in Matrigel suspension. On the eighth day after tumor implantation groups of 5 mice bearing implants were injected intraperitoneally with the compounds being tested at 5 mg/kg/every second day or at 10 mg/kg/every fourth day; control animals were injected with an equal volume of isotonic saline. Less soluble compounds were initially dissolved in dimethyl sulfoxide (DMSO) and diluted with medium. In those cases the control injections contained the same concentration of DMSO. Tumor size was measured with a caliper three times per week. Tumor volume was calculated by the formula: Volume(cc)=3.14×(length)×(width)^2/6 At autopsy tumors were removed and weighed. Tumor inhibition was calculated on both weight and measurement basis. In each Table, an IC50 value of “0” represents no detectable anti-cancer activity for a drug in a given cell line and “Stim.” indicates the observation of a stimulatory activity on the growth of the cancer cell line.

SCLC strain SHP-77 = test: MTT assay for cell survival, SCLC SHP-77 in vitro; format: cell-based, human; details: ED50 for killing of SCLC strain SHP-77 in vitro, 4 days, 0 = no detectable activity
PC3 PC cells = test: Inhibition of PC3 tumor growth in vivo in nude mice; design: species or system athymic nude mice; key to PC3 In vivo % inhib.: an IC50 value of “0” represents no detectable anti-cancer activity for a drug in a given cell line; “Stim.” indicates the observation of a stimulatory activity on the growth of the cancer cell line; details: percent inhibition of tumor growth in nude mice; prostate cancer; i.p. 5 mg/kg/every second day or 10 mg/kg/every fourth day
Procedure, shortened: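 Groups of 5 nude mice dosed i.p. at 10 mg/kg every fourth day or 5 mg/kg every second day, beginning 8 days after s.c. implantation of PC3 (1.5 million), A549 (1 million) or SHP-77 (2 million) cells in Matrigel; saline or DMSO-matched controls. Tumor weight at necropsy and caliper-derived volume both used to calculate inhibition.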

NSCLC strain A-549 = test: MTT assay for cell survival, NSCLC A-549 in vitro; format: cell-based, human; details: ED50 for killing of NSCLC strain A-549 in vitro, 4 days

Structure (SMILES) | A-549 In vivo % inhib. (A549 NSCLC cells) | IC50 (SCLC strain SHP-77; read-out: SHP-77 In vitro IC50) [µM] | PC3 In vivo % inhib. (PC3 PC cells) | IC50 (NSCLC strain A-549) [µM] | IC50 (SCLC strain SHP-77; read-out: SCLC SHP-77 IC50) [µM]
CC1(C)CC(NC(=O)C(Cc2ccc(OCc3c(Cl)cccc3Cl)cc2)NC(=O)C(c2ccccc2)C2CCCCC2)CC(C)(C)N1 (single isomer, unassigned) [M-1124#2, Chpa-OC2Y-Atmp] | 4.5% | 3.5 |  |  | 
CC1(C)CC(NC(=O)C(Cc2ccc(OCc3c(Cl)cccc3Cl)cc2)NC(=O)C(C)(c2ccccc2)c2ccccc2)CC(C)(C)N1 (centres unmarked) [Analog M-1126, 22Dp-OC2Y-Atmp] | 36% | 4 |  |  | 
O=C(NC1CCN(Cc2ccccc2)CC1)C(Cc1c(F)c(F)c(F)c(F)c1F)NC(=O)C(c1ccc(Cl)cc1)c1ccc(Cl)cc1 (centres unmarked) [Analog M-1188, Bcpa-F5F-Abzp] | 17% | 4.5 |  |  | 
O=C(C=Cc1c(F)c(F)c(F)c(F)c1F)NC(Cc1ccc2ccccc2c1)C(=O)N(Cc1ccccn1)Cc1ccccn1 (centres unmarked) [Analog M-1200, F5c-Nal-Dpic] | Stim | 5 |  |  | 
O=C(C=Cc1c(F)c(F)c(F)c(F)c1F)NC(Cc1ccc(-c2ccccc2)cc1)C(=O)N1CC2CC1CN2c1ccc(F)cc1 (centres unmarked) [Analog M-1272, F5c-Bip-Fpdh] |  |  | 71% | 22 | 10
CC1(C)CC(NC(=O)C(Cc2ccc(-c3ccccc3)cc2)NC(=O)C(c2ccc(Cl)cc2)c2ccc(Cl)cc2)CC(C)(C)N1 (centres unmarked) [Analog M-1274, Bcpa-Bip-Atmp] |  |  |  | 7.3 | 2.1
O=C(NC(Cc1ccc(-c2ccccc2)cc1)C(=O)N1CC2CC1CN2Cc1ccccc1)C(c1ccc(Cl)cc1)c1ccc(Cl)cc1 (centres unmarked) [Analog M-1276, Bcpa-Bip-Bdbh] |  |  | 56% | 20 | > 60
O=C(C=Cc1c(F)c(F)c(F)c(F)c1F)NC(Cc1ccc(I)cc1)C(=O)N1CC2CC1CN2Cc1ccccc1 (centres unmarked) [Analog M-1280, F5c-PIF-Bdbh] |  |  | 40% | 20 | 10
O=C(C=Cc1c(F)c(F)c(F)c(F)c1F)NC(Cc1ccc(I)cc1)C(=O)N1CCC2(CC1)OCCO2 (centres unmarked) [Analog M-1284, F5c-PIF-Dasd] |  |  | Stim. | 20 | 22
O=C(C=Cc1c(F)c(F)c(F)c(F)c1F)NC(Cc1ccc(I)cc1)C(=O)NC1CN2CCC1CC2 [Analog M-1286, F5c-PIF-(R)-(+)-Aqu] |  |  |  | 9 | 4.3
O=C(C=Cc1c(F)c(F)c(F)c(F)c1F)NC(Cc1ccc(-c2ccccc2)cc1)C(=O)NC1CN2CCC1CC2 [Analog M-1288, F5c-Bip-(R)-(+)-Aqu] |  |  |  | 7.3 | 4.3
O=C(C=Cc1c(F)c(F)c(F)c(F)c1F)NC(Cc1ccc(I)cc1)C(=O)NC1CN2CCC1CC2 [Analog M-1290, F5c-PIF-(S)-(−)-Aqu] |  |  |  | 14 | 
O=C(C=Cc1c(F)c(F)c(F)c(F)c1F)NC(Cc1ccc(-c2ccccc2)cc1)C(=O)NC1CN2CCC1CC2 [Analog M-1292, F5c-Bip-(S)-(−)-Aqu] |  |  |  | 9.8 | 
O=C(C=Cc1c(F)c(F)c(F)c(F)c1F)NC(Cc1ccc(I)cc1)C(=O)N1CCCN(Cc2ccccc2)CC1 (centres unmarked) [Analog M-1294, F5c-PIF-Bhp] |  |  | 44% | 22 | 
O=C(C=Cc1c(F)c(F)c(F)c(F)c1F)NC(Cc1ccc(I)cc1)C(=O)N1CCN(c2ccc(Cl)cc2)CC1 (centres unmarked) [Analog M-1298, F5c-PIF-Cpp] |  |  |  | 21 | 
O=C(C=Cc1c(F)c(F)c(F)c(F)c1F)NC(Cc1ccc(I)cc1)C(=O)N1CCN(C(c2ccccc2)c2ccc(Cl)cc2)CC1 (centres unmarked) [Analog M-1300, F5c-PIF-Cbp] |  |  |  | 21 | 
O=C(C=Cc1c(F)c(F)c(F)c(F)c1F)NC(Cc1ccc(I)cc1)C(=O)N1CCN(CCc2ccccc2)CC1 (centres unmarked) [Analog M-1304, F5c-PIF-Pep] |  |  |  | 17 | 
O=C(C=Cc1c(F)c(F)c(F)c(F)c1F)NC(Cc1ccc(I)cc1)C(=O)N1CCN(CCCc2ccccc2)CC1 (centres unmarked) [Analog M-1308, F5c-PIF-Ppp] |  |  |  | 14 | 
O=C(C=Cc1c(F)c(F)c(F)c(F)c1F)NC(Cc1ccc(I)cc1)C(=O)N1CCN(Cc2ccc(Cl)cc2)CC1 (centres unmarked) [Analog M-1310, F5c-PIF-4-Clbp] |  |  | Stim. | 12 | 
O=C(C=Cc1c(F)c(F)c(F)c(F)c1F)NC(Cc1ccc(I)cc1)C(=O)NC1CCN(Cc2ccccc2)C1 (centres unmarked) [Analog M-1312, F5c-PIF-BapS] |  |  | 33% | 13 | 

Structure (SMILES) | A-549 In vivo % inhib. (A549 NSCLC cells) | IC50 (SCLC strain SHP-77; read-out: SHP-77 In vitro IC50) [µM] | PC3 In vivo % inhib. (PC3 PC cells) | IC50 (NSCLC strain A-549) [µM] | IC50 (SCLC strain SHP-77; read-out: SCLC SHP-77 IC50) [µM]
O=C(C=Cc1c(F)c(F)c(F)c(F)c1F)NC(Cc1ccc(I)cc1)C(=O)N1CCN(CC2CCCCC2)CC1 (centres unmarked) [Analog M-1314, F5c-PIF-Chmp] |  |  |  | 21 | 
C=CCN1CCN(C(=O)C(Cc2ccc(I)cc2)NC(=O)C=Cc2c(F)c(F)c(F)c(F)c2F)CC1 (centres unmarked) [Analog M-1316, F5c-PIF-Alp] |  |  |  | 20 | 
C=CCN(CC=C)CCN1CCN(C(=O)C(Cc2ccc(I)cc2)NC(=O)C=Cc2c(F)c(F)c(F)c(F)c2F)CC1 (centres unmarked) [Analog M-1318, F5c-PIF-Daep] |  |  |  | 8.4 | 
N#Cc1ccc(N2CCN(C(=O)C(Cc3ccc(I)cc3)NC(=O)C=Cc3c(F)c(F)c(F)c(F)c3F)CC2)cc1 (centres unmarked) [Analog M-1320, F5c-PIF-4-Cypp] |  |  |  | 17 | 
O=C(C=Cc1c(F)c(F)c(F)c(F)c1F)NC(Cc1ccc(I)cc1)C(=O)N1CCN(Cc2ccc(F)cc2)CC1 (centres unmarked) [Analog M-1322, F5c-PIF-Fbp] |  |  | 46% | 13 | 
O=C(C=Cc1c(F)c(F)c(F)c(F)c1F)NC(Cc1ccc(I)cc1)C(=O)NC1CCN(Cc2ccccc2)C1 (centres unmarked) [Analog M-1326, F5c-PIF-BapR] |  |  | 0.6% | 10 | 
CCCCCCCCN1CCN(C(=O)C(Cc2ccc(I)cc2)NC(=O)C=Cc2c(F)c(F)c(F)c(F)c2F)CC1 (centres unmarked) [Analog M-1330, F5c-PIF-Ocp] |  |  | 40% | 17 | 
Cc1ccc(CN2CCN(C(=O)C(Cc3ccc(I)cc3)NC(=O)C=Cc3c(F)c(F)c(F)c(F)c3F)CC2)cc1 (centres unmarked) [Analog M-1332, F5c-PIF-4-Mbp] |  |  | 63% | 7.8 | 
Cc1cc(C)c(CN2CCN(C(=O)C(Cc3ccc(I)cc3)NC(=O)C=Cc3c(F)c(F)c(F)c(F)c3F)CC2)c(C)c1 (centres unmarked) [Analog M-1334, F5c-PIF-Tmbp] |  |  | 50% | 19 | 
O=C(C=Cc1c(F)c(F)c(F)c(F)c1F)NC(Cc1ccc(I)cc1)C(=O)N1CCN(C(c2ccc(F)cc2)c2ccc(F)cc2)CC1 (centres unmarked) [Analog M-1336, F5c-PIF-Fpmp] |  |  | 71% | 12 | 
CC1(C)CC(NC(=O)C(Cc2ccc(OCc3c(Cl)cccc3Cl)cc2)NC(=O)c2ccccn2)CC(C)(C)N1 (centres unmarked) [Analog M-1350, Pic-OC2Y-Atmp] | 36% |  |  |  | 6.1
CC1(C)CC(NC(=O)[C@H](Cc2ccc(C#N)cc2)NC(=O)c2ccccn2)CC(C)(C)N1 [Analog M-1352, Pic-PCNF-Atmp] | 21% |  |  |  | > 60
CC1(C)CC(NC(=O)C(Cc2ccc(OCc3c(Cl)cccc3Cl)cc2)NC(=O)Cc2c(F)c(F)c(F)c(F)c2F)CC(C)(C)N1 (centres unmarked) [Analog M-1356, F5pa-OC2Y-Atmp] | 0 |  |  |  | 4.4
COc1ccc2cc(C(C)C(=O)NC(Cc3ccc(OCc4c(Cl)cccc4Cl)cc3)C(=O)NC3CC(C)(C)NC(C)(C)C3)ccc2c1 (centres unmarked) [Analog M-1380, Napr-OC2Y-Atmp] |  |  | 26% | 1.6 | 1.7
CC1(C)CC(NC(=O)C(Cc2ccc(OCc3c(Cl)cccc3Cl)cc2)NC(=O)c2ccc(NC(=N)N)cc2)CC(C)(C)N1 (centres unmarked) [Analog M-1390, Gbz-OC2Y-Atmp] |  |  | Stim. | 4.3 | > 40
O=C([C@H](Cc1ccc(OCc2c(Cl)cccc2Cl)cc1)NCc1c(F)c(F)c(F)c(F)c1F)N1CCN(C/C=C/c2ccccc2)CC1 [Analog M-1634, F5b-OC2Y-tCip] |  |  | Stim. |  | > 60
CC1(C)CC(NC(=O)[C@H](Cc2ccc(OCc3c(Cl)cccc3Cl)cc2)NC(=O)C(C#N)=Cc2ccc(O)cc2)CC(C)(C)N1 [Analog M-1638, Chc-OC2Y-Atmp] |  |  | 39% |  | 18
CC1(C)CC(NC(=O)C(Cc2ccc(OCc3c(Cl)cccc3Cl)cc2)NC(=O)C=Cc2ccc(N)cc2)CC(C)(C)N1 (centres unmarked) [Analog M-1648, Pac-OC2Y-Atmp] |  |  | 28% |  | 7.6
CC1(C)CC(NC(=O)[C@H](Cc2ccc(OCc3c(Cl)cccc3Cl)cc2)NC(=O)CC2CC3CCC2C3)CC(C)(C)N1 (some centres unmarked) [Analog M-1650, Nba-OC2Y-Atmp] |  |  | 40% |  | 4.3
